Test results reported in publication PMC10464297, “Reevaluation of bromodomain ligands targeting BAZ2A” (Protein Science : A Publication of the Protein Society, 2023).
Entries after “also recorded” stand apart in the source; their conditions may differ. Blank lines part the entries; values can stand above or below the molecule they belong to.

What was measured:
[1] = target: T1, BAZ2A bromodomain (Homo sapiens, UniProt Q9UIF9); assay: AlphaScreen binding competition, BAZ2A bromodomain; conditions: for % residual binding BAZ2A (100 μM): compound at 100 μM
T1 construct: BAZ2A and BAZ2B bromodomains were produced; made in house
T1 sequence (Q9UIF9 1793-1897 limits assumed): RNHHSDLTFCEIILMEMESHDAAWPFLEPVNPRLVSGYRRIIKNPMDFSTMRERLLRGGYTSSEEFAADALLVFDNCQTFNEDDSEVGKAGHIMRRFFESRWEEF
Text: (§1) BAZ2A and BAZ2B bromodomains were produced and their activity evaluated by AlphaScreen as previously reported (Dalle Vedove et al., [2018]; Spiliotopoulos et al., [2017]). BAZ2A bromodomain was crystallized as detailed in an earlier work (Spiliotopoulos et al., [2017]). Diffraction data were collected at the Elettra Synchrotron Light Source (Trieste, Italy), XRD1 and XRD2 beamlines, and the European Synchrotron Radiation Facility (ESRF, Grenoble, France), ID30A‐1/MASSIF‐1 beamline. Data were processed and structures were solved as described elsewhere (Dalle Vedove et al., [2018]). Chemical synthesis of compounds UP39 and UZH23 has already been reported (Unzue et al., [2016]; Zhu et al., [2018]). A detailed description of cell culture methods and ITC protocol is provided in the Supporting Information.
(§2) Figure S3. AlphaScreen competition binding assay for compounds UP39 and UZH23. The specific binding to the acetylated peptide relative to the control DMSO (y-axis) is plotted against the corresponding compound concentration in µM in log10 scale (x-axis).
(§3) (1 picture or pasted object on this page, not shown here)

[2] = target: T2, BAZ2B bromodomain (Homo sapiens, UniProt Q9UIF8); assay: AlphaScreen binding competition, BAZ2B bromodomain; conditions: for % residual binding BAZ2B (100 μM): compound at 100 μM
T2 construct: BAZ2A and BAZ2B bromodomains were produced; made in house
T2 sequence (Q9UIF8 2060-2164 limits assumed): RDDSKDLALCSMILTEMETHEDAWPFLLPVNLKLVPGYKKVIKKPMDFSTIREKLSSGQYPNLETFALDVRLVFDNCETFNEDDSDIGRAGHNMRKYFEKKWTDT
Text: as §1, §2, §3

[3] = target: T1, BAZ2A bromodomain; assay: Screening by co‐crystallization with BAZ2A bromodomain; assay type: binding
Text: as §1

[4] = system: first bromodomain of BRD4; set-up: method as in Hay et al., [2014]; Picaud et al., [2015]; conditions: ref Hay et al., [2014]; Picaud et al., [2015]; cited from earlier work
[5] = target: T1, BAZ2A bromodomain; assay: Isothermal titration calorimetry (ITC) on BAZ2A; assay type: binding; conditions: for Kd: 25°C, 0.25% DMSO, read-out: K D BAZ2A; for TΔS / ΔG / ΔH / N (sites): BAZ2A; for N (sites): one site model
Text: It is worth noticing however that these values may be slightly overestimated. The presence of 0.25% DMSO in the ITC experiments leads to less favorable K D values as DMSO competes for binding to the conserved Asn (Lolli & Battistutta, [2013]; Navratilova et al., [2016]). […] Indeed, the change in sign of the entropic term observed for TP‐238 binding to BAZ2A (compared to BPTF and CECR2) closely resembles the effect reported for crotonyllysine binding to the TAF1 bromodomain (compared to Kac), also displacing an additional water molecule from the binding pocket (Flynn et al., [2015]). […]
Isothermal Titration Calorimetry
ITC experiments were performed using an MicroCal PEAQ-IT C microcalorimeter (Malvern Panalytical, UK) at 25°C with a stirring speed of 750 rpm in 20mM Tris pH 7. 8, 0. 2 M NaCl, 0. 2 mM TCEP and 0. 25% DMSO. For each experiment, one 0. 4 µl injection followed by eighteen 2 µl injections have been performed, with 150 seconds separating each injectio n. The inhibitors were tested at 70 µM in the cell with His -Baz2A in the syringe at 1 mM. A blank run with only the buffer was carried out (Suppl. Fig. S6). Data analysis was done with PE A Q-ITC Analysis software , fitting the curve with the ‘one site’ model.

[6] = target: PCAF; set-up: method as in Humphreys et al., [2017]; conditions: ref Humphreys et al., [2017]; read-out: K D PCAF bromodomain; cited from earlier work
[7] = target: GCN5; set-up: method as in Humphreys et al., [2017]; conditions: ref Humphreys et al., [2017]; read-out: K D GCN5 bromodomain; cited from earlier work
[8] = target: BRPF1; set-up: method as in Humphreys et al., [2017]; conditions: lower potency than on PCAF/GCN5; ref Humphreys et al., [2017]; read-out: potency on BRPF1 bromodomain; cited from earlier work
[9] = target: BRPF3; set-up: method as in Humphreys et al., [2017]; conditions: lower potency than on PCAF/GCN5; ref Humphreys et al., [2017]; read-out: potency on BRPF3 bromodomain; cited from earlier work
[10] = target: BRD1; set-up: method as in Humphreys et al., [2017]; conditions: lower potency than on PCAF/GCN5; ref Humphreys et al., [2017]; read-out: potency on BRD1 bromodomain; cited from earlier work
[11] = system: PC3 (AR‐negative) PCa cells; assay: 2D proliferation assay (resazurin), PC3; assay type: cell-based
Method: (§4) Cell cultures, proliferation assay and spheroid gro wth […]
streptomycin and 2 m M L-glutamine. All cells were regularly tested for mycoplasma contamination.
For the proliferation assay, cells were counted with a hemocytometer and seeded in triplicates in 96-well plates (4 .5x10^3 cells/well for 22Rv1 and 2.0x103 for PC3) and let adhere overnight at 37°C, […]
(§5) transfected with siRNA for BAZ2A , RLUC or KIF11, as detailed below. The cells were incubated for 1, 3, 6 (PC3) and 9 days (22Rv1) and the medium containing either the carrier or the inhibitors was replaced every 3 day s. Cell proliferation and viability were determined at day 1, 3, 6 and 9 by adding 10% resazurin sodium salt solution (0. 03 mg/ml powder from Sigma -Aldrich) directly into each well and incubating them for 4h at 37°C, 5% CO 2. The absorbance at 570/600 nm was measured using a Varioskan plate reader. The reduction of the resazur in sodium salt was calculated using the formula: (Abs x – Abs 0. 1%DMSO day1)/(Abs 0. 1%DMSO day9 - Abs 0. 1%DMSO day1). The growth rate was analysed using the linear regression algorithm of GraphPad Prism. […]

[12] = system: 22Rv1 (AR‐positive) PCa cells; assay: 2D proliferation assay (resazurin), 22Rv1; assay type: cell-based
Method: (§6) Cell cultures, proliferation assay and spheroid gro wth
PC3 and 22Rv1 cells were cultured in RPMI 1640 medium containing 10% FBS, 1% penicillin-streptomycin and 2 m M L-glutamine. All cells were regularly tested for mycoplasma contamination.
For the proliferation assay, cells were counted with a hemocytometer and seeded in triplicates in 96-well plates (4 .5x10^3 cells/well for 22Rv1 and 2.0x103 for PC3) and let adhere overnight at 37°C, 5% CO2. The following day, the medium was replaced with RPMI 1640 containing either the carrier […]
as §5

[13] = system: PC3 spheroids; assay: Spheroid growth (3D), PC3; assay type: cell-based
Method: as §4
streptomycin and 2 m M L-glutamine. All cells were regularly tested for mycoplasma contamination. […]
Spheroids were obtained by plating PC3 and 22Rv1 cells in low -adhesion round bottom 96 -well […]
(§7) After seeding, the cells were centrifuged for 10 min at 1200 x g at 4°C. Spheroids were given 48 hours to form after seeding before adding the treatment or the carrier (0.1% DMSO). Medium supplemented with treatment/carrier was changed every 48 hours, for a total of 32 days for 22Rv1 and 16 days for PC3. Each spheroid was imaged in brightfield every day or every other day (after day 20), using a Leica DM IL microscope […]
(§8) equipped with a Leica DFC450C digital camera. The area of each spheroid was measured using ImageJ and the average area for each condition was calculated. The growth rate was analysed using the segmental linear regression algorithm of GraphPad Prism. The appropriateness of the model was evaluated by considering the R square values and the Replicates test (Suppl. Table 6). […]

[14] = system: 22Rv1 spheroids; assay: Spheroid growth (3D), 22Rv1; assay type: cell-based
Method: as §6
PC3 and 22Rv1 cells were cultured in RPMI 1640 medium containing 10% FBS, 1% penicillin-streptomycin and 2 m M L-glutamine. All cells were regularly tested for mycoplasma contamination. […]
as §7, with “Spheroids were obtained by plating PC3 and 22Rv1 cells in low -adhesion round bottom 96 -well plates. For 22Rv1, 2500 cells/well were seeded in 200 µl RPMI 1640; for PC3, 250 cells/well were seeded in 200 µl RPMI 1640 supplemented with 1.5% Matrigel. After” for “After”
as §8

[15] = target: CECR2 bromodomain; conditions: ref Ycas et al., [2020]; read-out: K D CECR2; cited from earlier work
[16] = target: BRD9; conditions: ref Ycas et al., [2020]; read-out: K D BRD9; cited from earlier work
[17] = target: BPTF; conditions: ref Ycas et al., [2020]; read-out: K D BPTF; cited from earlier work
[18] = 3D setting, GSK2801 25 μM, BAZ2‐ICR 25 μM, BI9564 20 μM

% residual binding BAZ2A (100 μM) [1]: 95 ± 4% | % residual binding BAZ2B (100 μM) [2]: 92 ± 6% | located in BAZ2A Kac pocket by co‐crystallization [3]: inability to act as BAZ2A inhibitors
Structure (SMILES): COc1ccc(CCc2nc3cc(-c4c(C)noc4C)ccc3n2C[C@H](C)N2CCOCC2)cc1Cl [SGC‐CBP30]
off‐target activity on the first bromodomain of BRD4 [4]: weak off‐target activity

% residual binding BAZ2A (100 μM) [1]: 77 ± 5% | % residual binding BAZ2B (100 μM) [2]: 70 ± 3% | Kd [5]: 165000 ± 8000 nM | TΔS [5]: -5.8 kcal/mol | ΔG [5]: -5.2 kcal/mol | ΔH [5]: -11.0 ± 0.3 kcal/mol | N (sites) [5]: 1 sites | located in BAZ2A Kac pocket by co‐crystallization [3]: located in the BAZ2A Kac pocket
Structure (SMILES): CN1C[C@H](Nc2cnn(C)c(=O)c2Br)C[C@H](c2ccccc2)C1 [GSK4027]
Kd [6]: 1.4 nM | Kd [7]: 1.4 nM | Kd [8]: 100 to 150 nM | Kd [9]: 100 to 150 nM | Kd [10]: 100 to 150 nM

IC50 ([1]; AlphaScreen): 86000 ± 9000 nM | % residual binding BAZ2A (100 μM) [1]: 52 ± 9% | IC50 ([2]; AlphaScreen): > 100000 nM | % residual binding BAZ2B (100 μM) [2]: 62 ± 7%
Structure (SMILES): CC(=O)n1cc(-c2c(C)nn3c2OCC3)c2ccccc21 [UZH23]

Structure (SMILES): COc1cc(-c2cn(C)c(=O)c3cnccc23)c(OC)cc1CN(C)C [BI9564]
effect on 2D growth of PC3 cells ([11]; 2D‐cell culture, PC3): completely inactive on PC3 cells | Slope (best-fit, linear regression of growth curve) ([11]; PC3, 0.1 µM): 0,1514 | Slope (best-fit, linear regression of growth curve) ([11]; PC3, 0.25 µM): 0,1530 | Slope (best-fit, linear regression of growth curve) ([11]; PC3, 0.5 µM): 0,1594 | Slope (best-fit, linear regression of growth curve) ([11]; PC3, 1 µM): 0,1557 | Slope (best-fit, linear regression of growth curve) ([11]; PC3, 2.5 µM): 0,1485 | Slope (best-fit, linear regression of growth curve) ([11]; PC3, 5 µM): 0,1453 | Slope (best-fit, linear regression of growth curve) ([11]; PC3, 10 µM): 0,1454 | Slope (best-fit, linear regression of growth curve) ([11]; PC3, 20 µM): 0,1470 | effect on 2D growth of 22Rv1 cells ([12]; 2D‐cell culture, 22Rv1): only moderately affected 22Rv1 cell growth; also recorded: limited activity only on 22Rv1 cells | Slope (best-fit, linear regression of growth curve) ([12]; 22Rv1, 0.1 µM): 0,1043 | Slope (best-fit, linear regression of growth curve) ([12]; 22Rv1, 0.25 µM): 0,1062 | Slope (best-fit, linear regression of growth curve) ([12]; 22Rv1, 0.5 µM): 0,1057 | Slope (best-fit, linear regression of growth curve) ([12]; 22Rv1, 1 µM): 0,1046 | Slope (best-fit, linear regression of growth curve) ([12]; 22Rv1, 2.5 µM): 0,09943 | Slope (best-fit, linear regression of growth curve) ([12]; 22Rv1, 5 µM): 0,09452 | Slope (best-fit, linear regression of growth curve) ([12]; 22Rv1, 10 µM): 0,08987 | Slope (best-fit, linear regression of growth curve) ([12]; 22Rv1, 20 µM): 0,08043 | effect on growth of PC3 spheroids [13, 18]: less effective on PC3 | slope2 (segmental linear regression of spheroid growth) ([13]; PC3 spheroids, 20 µM, after X0 = day 6): 69835 | slope1 (segmental linear regression of spheroid growth) ([13]; PC3 spheroids, 20 µM, before X0 = day 6): 28821 | effect on growth of 22Rv1 spheroids [14, 18]: reduced the growth of 22Rv1 spheroids | slope2 (segmental linear regression of spheroid growth) ([14]; 22Rv1 spheroids, 20 µM, after X0 = day 9): 6998 | slope1 (segmental linear regression of spheroid growth) ([14]; 22Rv1 spheroids, 20 µM, before X0 = day 9): 12255

% residual binding BAZ2A (100 μM) [1]: 81 ± 3% | % residual binding BAZ2B (100 μM) [2]: 77 ± 2% | Kd [5]: 108000 ± 6000 nM | TΔS [5]: 2.68 kcal/mol | ΔG [5]: -5.41 kcal/mol | ΔH [5]: -2.73 ± 0.07 kcal/mol | N (sites) [5]: 1 sites | located in BAZ2A Kac pocket by co‐crystallization [3]: located in the BAZ2A Kac pocket
Structure (SMILES): CN(C)CCCOc1ccc(-c2cc(NCCCn3cccn3)nc(S(C)(=O)=O)n2)cc1 [TP‐238]
Kd [15]: 10 nM | Kd [16]: 1100 nM | Kd [17]: 120 nM

% residual binding BAZ2A (100 μM) [1]: 98 ± 2% | % residual binding BAZ2B (100 μM) [2]: 96 ± 1% | located in BAZ2A Kac pocket by co‐crystallization [3]: inability to act as BAZ2A inhibitors
Structure (SMILES): CCC(=O)N1CCOc2c(cc(-c3ccc(OC)c(OC)c3)cc2OC[C@H]2CCCN(C)C2)C1 [I‐CBP112]
off‐target activity on the first bromodomain of BRD4 [4]: weak off‐target activity
